Assay results published in PubChem BioAssay (NCI).
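A five-concentration, 48-hour dose response in 96-well plates underlies each endpoint, interpolated linearly between surrounding concentrations. Abbreviation: GI50, concentration required for 50% inhibition of growth. TGI: concentration producing complete growth inhibition.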

Columns and labels:
Assay in all cases: growth of human tumour cells (NCI), 48 h
SK-MEL-2 melanoma = tested on: SK-MEL-2 melanoma
OVCAR-5 ovarian = tested on: OVCAR-5 ovarian
HT29 colon = tested on: HT29 colon
EKVX NSCLC = tested on: EKVX NSCLC
NCI/ADR-RES ovarian = tested on: NCI/ADR-RES ovarian
T-47D breast = tested on: T-47D breast
HOP-92 NSCLC = tested on: HOP-92 NSCLC
RXF 393 renal = tested on: RXF 393 renal
SNB-75 CNS = tested on: SNB-75 CNS
IGROV1 ovarian = tested on: IGROV1 ovarian
SW-620 colon = tested on: SW-620 colon
HCC-2998 colon = tested on: HCC-2998 colon
OVCAR-4 ovarian = tested on: OVCAR-4 ovarian
PC-3 prostate = tested on: PC-3 prostate
SF-295 CNS = tested on: SF-295 CNS
RPMI-8226 leukemia = tested on: RPMI-8226 leukemia
A549 NSCLC = tested on: A549 NSCLC
ACHN renal = tested on: ACHN renal
CAKI-1 renal = tested on: CAKI-1 renal
HCT-15 colon = tested on: HCT-15 colon
HS 578T breast = tested on: HS 578T breast
UACC-62 melanoma = tested on: UACC-62 melanoma
SK-MEL-28 melanoma = tested on: SK-MEL-28 melanoma
U251 CNS = tested on: U251 CNS
NCI-H23 lung = tested on: NCI-H23 lung
SF-268 CNS = tested on: SF-268 CNS
SK-MEL-5 melanoma = tested on: SK-MEL-5 melanoma
NCI-H460 lung = tested on: NCI-H460 lung
SF-539 CNS = tested on: SF-539 CNS
MDA-MB-435 = tested on: MDA-MB-435
UO-31 renal = tested on: UO-31 renal
MDA-MB-231 breast = tested on: MDA-MB-231 breast
TK-10 renal = tested on: TK-10 renal
UACC-257 melanoma = tested on: UACC-257 melanoma
A498 renal = tested on: A498 renal
MCF7 breast = tested on: MCF7 breast
MOLT-4 leukemia = tested on: MOLT-4 leukemia
NCI-H522 lung = tested on: NCI-H522 lung
CCRF-CEM leukemia = tested on: CCRF-CEM leukemia
DU-145 prostate = tested on: DU-145 prostate
SK-OV-3 ovarian = tested on: SK-OV-3 ovarian
MALME-3M melanoma = tested on: MALME-3M melanoma
SR leukemia = tested on: SR leukemia
NCI-H226 lung = tested on: NCI-H226 lung
COLO 205 colon = tested on: COLO 205 colon
OVCAR-3 ovarian = tested on: OVCAR-3 ovarian
SNB-19 CNS = tested on: SNB-19 CNS
HCT-116 colon = tested on: HCT-116 colon
BT-549 breast = tested on: BT-549 breast
HOP-62 NSCLC = tested on: HOP-62 NSCLC
K-562 leukemia = tested on: K-562 leukemia
786-0 renal = tested on: 786-0 renal
OVCAR-8 ovarian = tested on: OVCAR-8 ovarian
LOX IMVI melanoma = tested on: LOX IMVI melanoma
SN12C renal = tested on: SN12C renal
KM12 colon = tested on: KM12 colon

SMILES: OCCCCC#Cc1ccccc1C#Cc1ccccn1
- GI50 (SK-MEL-2 melanoma): 41.6 µM
- TGI (SK-MEL-2 melanoma): > 100 µM
- GI50 (OVCAR-5 ovarian): > 100 µM
- TGI (OVCAR-5 ovarian): > 100 µM
- GI50 (HT29 colon): 26.1 µM
- TGI (HT29 colon): > 100 µM
- GI50 (EKVX NSCLC): 27.7 µM
- TGI (EKVX NSCLC): 67 µM
- GI50 (NCI/ADR-RES ovarian): 27.3 µM
- TGI (NCI/ADR-RES ovarian): 77.4 µM
- GI50 (T-47D breast): 15.9 µM
- TGI (T-47D breast): 80.6 µM
- GI50 (HOP-92 NSCLC): 26.6 µM
- TGI (HOP-92 NSCLC): 94.6 µM
- GI50 (RXF 393 renal): 25 µM
- TGI (RXF 393 renal): 62.3 µM
- GI50 (SNB-75 CNS): 14.9 µM
- TGI (SNB-75 CNS): 51.5 µM
- GI50 (IGROV1 ovarian): 27.2 µM
- TGI (IGROV1 ovarian): > 100 µM
- GI50 (SW-620 colon): 45.7 µM
- TGI (SW-620 colon): > 100 µM
- GI50 (HCC-2998 colon): 26.4 µM
- TGI (HCC-2998 colon): 72.9 µM
- GI50 (OVCAR-4 ovarian): 30.3 µM
- TGI (OVCAR-4 ovarian): > 100 µM
- GI50 (PC-3 prostate): 24.6 µM
- TGI (PC-3 prostate): 73.9 µM
- GI50 (SF-295 CNS): 21.8 µM
- TGI (SF-295 CNS): 65.2 µM
- GI50 (RPMI-8226 leukemia): 16.4 µM
- TGI (RPMI-8226 leukemia): 37.4 µM
- GI50 (A549 NSCLC): 33.6 µM
- TGI (A549 NSCLC): > 100 µM
- GI50 (ACHN renal): 31.8 µM
- TGI (ACHN renal): > 100 µM
- GI50 (CAKI-1 renal): 28.6 µM
- TGI (CAKI-1 renal): > 100 µM
- GI50 (HCT-15 colon): 29.8 µM
- TGI (HCT-15 colon): > 100 µM
- GI50 (HS 578T breast): 25.6 µM
- TGI (HS 578T breast): 88.3 µM
- GI50 (UACC-62 melanoma): 23.1 µM
- TGI (UACC-62 melanoma): > 100 µM
- GI50 (SK-MEL-28 melanoma): 31 µM
- TGI (SK-MEL-28 melanoma): > 100 µM
- GI50 (U251 CNS): 31.2 µM
- TGI (U251 CNS): > 100 µM
- GI50 (NCI-H23 lung): 25.2 µM
- TGI (NCI-H23 lung): > 100 µM
- GI50 (SF-268 CNS): 29.8 µM
- TGI (SF-268 CNS): > 100 µM
- GI50 (SK-MEL-5 melanoma): 19.1 µM
- TGI (SK-MEL-5 melanoma): 41.4 µM
- GI50 (NCI-H460 lung): 24.8 µM
- TGI (NCI-H460 lung): 76.4 µM
- GI50 (SF-539 CNS): 17.8 µM
- TGI (SF-539 CNS): 42.7 µM
- GI50 (MDA-MB-435): 25.1 µM
- TGI (MDA-MB-435): 79.4 µM
- GI50 (UO-31 renal): 32.3 µM
- TGI (UO-31 renal): > 100 µM
- GI50 (MDA-MB-231 breast): 21 µM
- TGI (MDA-MB-231 breast): 64.9 µM
- GI50 (TK-10 renal): 61 µM
- TGI (TK-10 renal): > 100 µM
- GI50 (UACC-257 melanoma): 28.8 µM
- TGI (UACC-257 melanoma): 87.2 µM
- GI50 (A498 renal): 8.99 µM
- TGI (A498 renal): 49.7 µM
- GI50 (MCF7 breast): 37.8 µM
- TGI (MCF7 breast): > 100 µM
- GI50 (MOLT-4 leukemia): 21.4 µM
- TGI (MOLT-4 leukemia): > 100 µM
- GI50 (NCI-H522 lung): 22.2 µM
- TGI (NCI-H522 lung): 56 µM
- GI50 (CCRF-CEM leukemia): 31.4 µM
- TGI (CCRF-CEM leukemia): > 100 µM
- GI50 (DU-145 prostate): 9.78 µM
- TGI (DU-145 prostate): 74.6 µM
- GI50 (SK-OV-3 ovarian): > 100 µM
- TGI (SK-OV-3 ovarian): > 100 µM
- GI50 (MALME-3M melanoma): 27.1 µM
- TGI (MALME-3M melanoma): > 100 µM
- GI50 (SR leukemia): 25.5 µM
- TGI (SR leukemia): 96.2 µM
- GI50 (NCI-H226 lung): 31.3 µM
- TGI (NCI-H226 lung): > 100 µM
- GI50 (COLO 205 colon): 31.1 µM
- TGI (COLO 205 colon): > 100 µM
- GI50 (OVCAR-3 ovarian): 26.1 µM
- TGI (OVCAR-3 ovarian): 77.3 µM
- GI50 (SNB-19 CNS): 42.1 µM
- TGI (SNB-19 CNS): > 100 µM
- GI50 (HCT-116 colon): 30.8 µM
- TGI (HCT-116 colon): > 100 µM
- GI50 (BT-549 breast): 15.8 µM
- TGI (BT-549 breast): 47.4 µM
- GI50 (HOP-62 NSCLC): 29.4 µM
- TGI (HOP-62 NSCLC): > 100 µM
- GI50 (K-562 leukemia): 29 µM
- TGI (K-562 leukemia): > 100 µM
- GI50 (786-0 renal): 38.3 µM
- TGI (786-0 renal): > 100 µM
- GI50 (OVCAR-8 ovarian): 32.4 µM
- TGI (OVCAR-8 ovarian): > 100 µM
- GI50 (LOX IMVI melanoma): 27.7 µM
- TGI (LOX IMVI melanoma): > 100 µM
- GI50 (SN12C renal): 32.1 µM
- TGI (SN12C renal): > 100 µM
- GI50 (KM12 colon): 29.7 µM
- TGI (KM12 colon): > 100 µM
